# Experimental data taken from patent US20020032183A1, “Use of (di-substituted-phenyl)-pyrimidinyl-imidazole derivatives as JNK-inhibitors” (priority 2000, published 2002).
# Values joined by “and” are separate entries in the source; they are usually repeats but may differ in a detail not shown here. Equal values may be shown once. Read-outs that look alike come from different tables or passages of the source. Marks after values point to notes of the source that are not given here.
# Experiments:
# [1] = molecular target: T1, JNK3α1 (Homo sapiens, UniProt P53779); assay: Biochemical determination of inhibition of JNK3α1; details: truncated JNK3α1, 1 μM ATP, 0.5 μM GST-ATF2, 30° C., 30 min
# T1 construct: Truncated JNK3α1 (amino acids 39-422) was expressed in E. coli; made in house; host or cells: E. coli
# T1 sequence (P53779 39-422 isoform P53779-2): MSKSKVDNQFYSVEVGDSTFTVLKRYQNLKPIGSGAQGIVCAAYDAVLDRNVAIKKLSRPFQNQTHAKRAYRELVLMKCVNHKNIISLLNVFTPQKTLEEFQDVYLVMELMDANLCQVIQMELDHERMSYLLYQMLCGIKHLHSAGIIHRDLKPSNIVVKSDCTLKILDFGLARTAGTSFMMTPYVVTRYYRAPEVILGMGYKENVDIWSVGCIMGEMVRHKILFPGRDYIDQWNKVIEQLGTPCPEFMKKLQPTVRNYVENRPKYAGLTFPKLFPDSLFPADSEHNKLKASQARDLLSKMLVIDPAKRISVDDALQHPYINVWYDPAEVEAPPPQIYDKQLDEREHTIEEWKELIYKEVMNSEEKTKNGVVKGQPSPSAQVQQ
# Description: Activation reactions were incubated at 30° C. for 2 h.
# Enzyme inhibition studies were performed at 30° C. for 30 min with 0.5 μM GST-ATF2, 1 μM ATP, 1 nM activated JNK3α1 and compound ranging from 30 pM to 100 μM. Reactions were carried out in 100 μL volumes containing the final concentrations of the following: 25 mM HEPES (Sigma) pH 7.4; 10 mM MgCl2 (Sigma); 2 mM DTT (Sigma); 20 mM β-glycerophosphate (Sigma); 0.1 mM Na3VO4 (Sigma); 2 μCi [γ-^33P]ATP (2000 Ci/mmol; 1 Ci=37 GBq) (Amersham Pharmacia Biotech, Piscataway, N.J.). Reactions were stopped with 100 μL 100 mM EDTA/15 mM sodium pyrophosphate. Immobilon™-P 96-well plates (Millipore MAIPNOB™ 10, available from the Millipore Corp., Bedford, Mass.) were pretreated with 100 μL methanol, followed by 100 μL 15 mM sodium pyrophosphate. Fifty μL of the stopped reaction was spotted in triplicate on the Immobilon™-P 96-well plate. The samples were vacuum-filtered and washed three times each with 100 μL 75 mM H3PO4 to remove unincorporated [γ-^33P]ATP. After the third H3PO4 wash and a final filtration step to remove H3PO4, 50 μL of Microscint™-20 (Packard BioScience Ltd., Pangbourne, Berkshire, U.K.) was added to each well and samples were analyzed on a Packard Topcount™ liquid scintillation counter. IC50 values were determined by fitting the data to the equation for a four parameter logistic.
# [2] = test system: mesencephalic dopaminergic neurons; format: cell-based, rat; details: for TH-immunoreactive cell survival, Mean: 48 hours
# Excerpt: Effects of Jnk Inhibition on Dopaminergic Neuronal Survival, In Vitro Following Treatment with the Neurotoxin MPP^+.
# This protocol produces a yield of dopaminergic neurons of around 0.5-1%; this is equivalent to roughly 1000-1500 dopaminergic cells in the well. 14 day gestation Sprague-Dawley rats were killed by stunning and exsanguination. Embryos were removed and decapitated, and the ventral mesencephalon dissected from the brain. The tissue was dissociated by trypsin (0.25% in Hank's BSS) digestion for 20 minutes. The trypsin was neutralized by addition of an excess of serum containing medium and the cells centrifuged at 1000 rpm for 10 minutes. The cell pellet was resuspended in DMEM/10% FCS, and a single cell suspension prepared by mechanical dissociation and passage through a 70 μm cell strainer. Trypan blue excluding cells were counted in a haemocytometer, and cells were plated into poly-D-lysine treated 8-well chamber slides at a density of 2×10^5 cells/well in Dulbecco's MEM supplemented with 10% FCS. Cultures were incubated for 24 hours at 37° C./5% CO2, then the medium was replaced with DMEM supplemented with SATO (final concentration; 4.3 mg/ml BSA, 0.77 μg/ml progesterone, 20 μg/ml putrescine, 0.49 μg/ml L-thyroxine, 0.048 μg/ml selenium and 0.42 μg/ml tri-iodo-thyronine).
# Cultures were incubated for 5 days, then removed from the incubator and treated with compounds. Jnk inhibitors were added at concentrations ranging from 1 nM to 1 μM to 4 independent wells per concentration. 15 minutes following addition of Jnk inhibitors, MPP^+ was added directly to the wells to give a final concentration in the well of 10 μM. 4 wells were treated with MPP^+ 10 μM alone, and 4 left as untreated controls. zVAD-fmk 300 μM and Example 2 500 nM were used as positive controls. Once compounds and MPP^+ had been added, cultures were returned to the incubator at 37° C./5% CO2 for a further 48 hours prior to fixation and immunostaining.
# To determine the numbers of surviving dopaminergic neurons, immunocytochemistry was carried out using a rabbit polyclonal antibody raised against TH. Non-specific binding sites were blocked using 10% normal goat serum in PBS, then primary antibody was added at 4° C. overnight. The next day, the cells were washed and treated with biotin conjugated goat anti-rabbit IgG for one hour, followed by peroxidase conjugated avidin biotin complex, both made up from the Vectastain® Elite ABC kit (Vector Laboratories, Burlingame, Calif.) according to the manufacturer's instructions. Staining was visualized using Vector™ SG (Vector Laboratories) insoluble peroxidase substrate according to the manufacturer's instructions. Following staining, the gaskets were removed from the chamber slides, and the slides mounted using aqueous mountant. Slides were blinded by another investigator before quantification of TH-immunoreactive cell survival. To determine TH-immunoreactive cell survival, cells were visualized using transmitted light on a Zeiss Axiovert inverted microscope using a 10X objective. Counts were made of all the TH-immunoreactive cells present in each well.
# Data analysis was performed using a one way analysis of variance, followed by Dunnett's t-test. In each case the data refer to one representative experiment, with four independent replicates for each data point. […] Data shown are normalized to percentage of control response; all statistical analyses, however, were carried out on the cell counts.
# [3] = test system: mouse cerebellar granule neurons; assay: Detection of neuronal apoptosis in mouse cerebellar granule neurons (low K+); format: cell-based; details: Neuron, low (5 mM) K+, serum-free, 8 h, FIG. 1, read-out: IC50 for inhibition of neuronal apoptosis
# Description: 1. Dissect out cerebella from 7-9 day old CD-I mouse pups; remove meninges.
# 2. Mince and dissociate with trypsin. Halt trypsinization with Dnase I and egg white trypsin inhibitor.
# 3. Individual cells are obtained by trituration with a pasteur pipet.
# 4. Cells were resuspended in cell culture media [(cMEM) E-MEM), 25 mM glucose, 10% fetal bovine serum, 2 mM glutamine, 100 μg/mL gentamycin, 25 mM KCl] and seeded at 1.2×10^5 cells per well onto 96-well microplates pre-coated with poly-D-lysine.
# 5. Cultures were incubated at 37° C. in 6% CO2, and were used for experiments on day 5-7 in vitro.
# 1. Replace media in column 1 with serum-free cMEM. Replace medium in columns 2-12 with serum-free cMEM with low (5 mM) K+.
# 2. Add drug titrations (serial diluted in DMSO; final 1% DMSO). Incubate 8 h @ 37° C.
# 3. Spin plate @ 1500 rpm 10 min., remove media and add lysis buffer.
# 4. Incubate 30 min. room temp. shaking.
# 5. Spin plate @ 1500 rpm 10 min., transfer supernatant to fresh plate. Store @ 4° C.
# 6. Transfer 5 μL supernatant and 45 μL EIA reagent to EIA strip plate (positive control standards in column 12); incubate @ room temp 2 h.
# 7. Wash strip plate with PBS using the plate washer.
# 8. Add 150 μL K-blue substrate (ELISA Technologies, Inc., Gainsville, Fla.); stop using 50 μL Red Stop. Read plate @ 650 nm.
compound,measurement,setting,value
"CCCn1c(C2CCN(C)CC2)nc(-c2ccc(Cl)c(Cl)c2)c1-c1ccnc(NC2CC2)n1 [Example 2, Cyclopropyl-{4-[5-(3,4-dichlorophenyl)-2-[(1-methyl)-piperidin]-4-yl-3-propyl-3H-imidazol-4-yl]-pyrimidin-2-yl}amine]",IC50,[1],7 nM
same,"TH-immunoreactive cell survival, Mean",[2]; 1 nM + MPP+ 10 μM,54.72 % of untreated control
same,"TH-immunoreactive cell survival, Mean",[2]; 10 nM + MPP+ 10 μM,60.77* % of untreated control
same,"TH-immunoreactive cell survival, Mean",[2]; 100 nM + MPP+ 10 μM,59.95* % of untreated control
same,"TH-immunoreactive cell survival, Mean",[2]; 500 nM + MPP+ 10 μM,72 % of untreated control and 72.41** % of untreated control
same,"TH-immunoreactive cell survival, Mean",[2]; 1 μM + MPP+ 10 μM,71.14** % of untreated control
same,"TH-immunoreactive cell survival, Mean",[2]; 10 μM + MPP+ 10 μM,32.08 % of untreated control
same,Non-specific toxicity,[2]; 10 μM treatment,Non-specific toxicity is observed
same,Concentrations giving significant increases in survival,"[2]; MPP+ 10 μM, p<0.05",≥ 10 nM
same,IC50,[3],100 nM
